Entries after “also recorded” stand apart in the source; their conditions may differ. Read-outs that look alike come from different tables or passages of the source.
Columns and labels:
[1] = system: peptide-loaded T2 cells; experiment: Induction of primary CTL responses with peptide-pulsed T2 cells and 4-hr cytotoxicity against peptide-loaded T2 cells; format: cell-based, human; conditions: for donors in which peptide-stimulated CTL lines killed CCNE1144-152- and CCNE2144-152-pulsed T2 cells: PBMCs from 7 HLA-A2 positive normal donors; for peptide-specific lysis by CTL line generated against the MPO peptide: T2 cells loaded with 2.0 μg/mL of the same peptide; for elicitation of peptide specific CTL lines: different donors and differing peptide concentrations; for peptide-specific lysis by CTL line generated against the peptide: T2 cells loaded with 1.0 μg/mL of the same peptide, E:T 50:1 to 6:1
[2] = system: HLA-A2.1 positive human myeloid leukemia cells; experiment: 4-hr cytotoxicity of peptide-specific CTL against leukemia cells, normal marrow and cell lines; format: cell-based; conditions: not non-transfected K562
Procedure: CTL cytotoxicity assay. A semi-automated minicytotoxicity assay was used to determine specific lysis as described previously (Molldrem, 2000; Molldrem et al., 1996). Briefly, effector cells were prepared in doubling dilutions from 6×10^3 to 25×10^3 cells/well and were plated in 40 μl, 60-well Terasaki trays (Robbins Scientific, Sunnyvale, Calif., USA) with six replicates per dilution. Target cells (T2 cells, marrow-derived leukemic cells, or BM from a healthy donor) at a concentration of 2×10^6 cells/ml were stained with 10 μg/ml of Calcein-AM (Molecular Probes Inc.) for 60 min at 37° C. […] Wells with target cells alone and medium alone were used for maximum (max) and minimum (min.) fluorescence emission, respectively. After 4 hr incubation at 37° C. in 5% CO2, 5 μl FluoroQuench (One Lambda Inc., Canoga Park, Calif., USA) was added to each well, and the trays were centrifuged for 1 min at 60 g before measurement of fluorescence using an automated CytoFluor II plate reader (PerSeptive Biosystems, Framingham, Mass., USA). The percentage of lysis was calculated as follows: % lysis={1−[(mean experimental mission−mean min.)/(mean max−mean min.)]}×100%.
PR1 specific CTL preferentially lyse human myeloid leukemia cells. It was next determined whether the PR1-specific CTL line was capable of lysing allogeneic human myeloid leukemia cells from HLA-A2.1 positive individuals. […]

[3] = system: PR1-CTL from a healthy donor; experiment: Annexin V staining of PR1-CTL 16 to 18 hr after challenge with peptide-pulsed T2 cells; format: cell-based, human; conditions: for apoptosis of high avidity PR1-CTL: T2 cells pulsed with 20 μM peptide
Excerpt: High PR1 concentration and proteinase 3-overexpressing CML cells induce apoptosis of high avidity PR1-specific CTL. […] All high avidity PR1-CTL exposed to high dose PR1 were dead after 36 to 48 hr of co-culture.

[4] = molecular target: HLA-A2.1 (Homo sapiens, UniProt P04439, D140Y/D185E/D98H/E176V/E277Q/G131W/G231S/I119V/I121R/I166T/I218V/L300P/L318F/N151K/N90K/P208A/P217A/Q86G/Q94H/R138H/R169H/T345S); experiment: Peptide binding: HLA-A2.1 surface expression on peptide-coated T2 cells by indirect flow cytometry; conditions: for Median Channel of Fluorescence of HLA-A2 Expression on T2: background HLA-A2 without peptide 22; for peptide binding to HLA-A*0201, fluorescence intensity versus positive control peptide (Influenza B Nuclear Protein): T2 cells pulsed 18 hr; for surface HLA-A2.1 expression compared with T2 cells with no added peptide: result in words
[5] = system: PBMCs from HLA-A2+ CML patients; format: cell-based, human
[6] = system: PBMC from HLA-A2.1+ healthy donor; experiment: PR1/HLA-A2 tetramer staining of CTL elicited from healthy donor PBMC with PR1-pulsed T2 cells; format: cell-based, human
[7] = system: HLA-A2+ patients with CML, AML or MDS; experiment: Phase I/II PR1 peptide vaccine study; format: in vivo, human; conditions: 9 patients
Excerpt: To test this in refractory leukemia patients, a phase I/II vaccine study was initiated. HLA-A2^+ patients with CML (interferon-resistant or relapsed after BMT), AML (smoldering relapse or ≧2nd CR) or MDS (RAEB or RAEBt) with no detectable antibodies to proteinase 3 (no detectable cANCA) were eligible. Patients that relapsed after BMT or those ineligible for BMT were also eligible for study. Pregnant patients, HIV+ patients, and those with known vasculitis were excluded. Patients were required to have immunosuppression (i.e. cyclosporine, steroids) discontinued 4 weeks prior to study entry.
Secondarily, clinical responses were assessed by standard criteria with bone marrow biopsy, cytogenetic studies (standard chromosome banding) and molecular studies (PCR for bcr-abl or other known abnormalities such as t(15;17), inv16, etc.) 3 weeks after the last vaccination. Patients were seen and evaluated in clinic every 3 weeks during the study period. Both vialed PR1 peptide (NSC698102) and the adjuvant (Montanide ISA-51, NSC675756) were used in this study.
The overall study was divided into two parts: Phase I consisted of nine patients treated in cohorts of three at 1 of 3 dose levels of 0.25 mg, 0.5 mg, or 1.0 mg of PR1 peptide given subcutaneously in incomplete Freund's adjuvant (Montanide ISA-51) and GM-CSF 75 mg subcutaneously every 3 weeks for 3 injections. […]

Question: How did the “donors in which peptide-stimulated CTL lines killed CCNE1144-152- and CCNE2144-152-pulsed T2 cells” value [1] turn out when ILLDWLLEV [CCNE2144-152] was run?
Answer: 4 of 7

Question: What does the source list for ILLDWLMEV [CCNE1144-152]?
Answer: donors in which peptide-stimulated CTL lines killed CCNE1144-152- and CCNE2144-152-pulsed T2 cells [1]: 3 of 7; peptide-stimulated CTL lines that killed HLA-A2 transfected K562 leukemic cell line [2]: one of 4

Question: How did the “apoptosis of high avidity PR1-CTL” value [3] turn out when “Influenza nucleoprotein: control influenza peptide, Influenza B nucleoprotein (aa 85-94), known high binding affinity to HLA-A2.1 (KLGEFYNQMM) [reference compound]” was run?
Answer: no apoptosis was observed

Question: What about the “Median Channel of Fluorescence of HLA-A2 Expression on T2” value (from here on “Median Channel of Fluorescence … on T2”) [4] of the same substance?
Answer: 194

Question: For KLLLALAGL [MY2], which “peptide-specific lysis by CTL line generated against the MPO peptide” value [1] is on record?
Answer: high specific lysis

Question: KLNDILLIQL [PR7I] was tested. Which “peptide binding to HLA-A*0201, fluorescence intensity versus positive control peptide (Influenza B Nuclear Protein)” value [4] did it give?
Answer: strong peptide binding

Question: Which “peptide binding to HLA-A*0201, fluorescence intensity versus positive control peptide (Influenza B Nuclear Protein)” value [4] does the source give for KLNDVLLIQL [PR7V] here?
Answer: strong peptide binding

Question: With LIQPFMFRL [MY5] as the substance, how does the “elicitation of peptide specific CTL lines” value (“elicitation” for short) [1] read?
Answer: No peptide specific CTL lines could be elicited

Question: LLSYFKQPV [MY3] was tested. Which “elicitation” value [1] did it give?
Answer: No peptide specific CTL lines could be elicited

Question: Which “avidity of CTLs elicited with pp65 peptide-pulsed T2 cells” value [5] does the source give for “NLVPMVATV [pp65 peptide, reference compound]” here?
Answer: high-avidity p65-specific CTLs

Question: With RLFEQVMRI [MY4] as the substance, how does the “peptide-specific lysis by CTL line generated against the MPO peptide” value [1] read?
Answer: tested similarly

Question: Which “peptide-specific lysis by CTL line generated against the peptide” value [1] does the source give for RLFPDFFTRV [PR2] here?
Answer: did not demonstrate any significant cytotoxicity

Question: And the “Median Channel of Fluorescence … on T2” value [4]?
Answer: 273

Question: What about the “surface HLA-A2.1 expression compared with T2 cells with no added peptide” value [4] of the same substance?
Answer: increased surface HLA-A2.1 expression

Question: For SLWRRPFNV [MY1], which “elicitation” value [1] is on record?
Answer: No peptide specific CTL lines could be elicited

Question: For “VLQELNVTV [PR1, HLA-A2.1-restricted nonamer (aa 169-177) derived from proteinase 3]”, which “apoptosis of high avidity PR1-CTL” value [3] is on record?
Answer: underwent apoptosis

Question: And the “apoptosis of low avidity PR1-CTL” value ([3]; high or low concentrations of PR1)?
Answer: did not undergo apoptosis

Question: And the “avidity of PR1-CTL that could be elicited from CML patients” value ([5]; CML #1, #2, #3, weekly PR1 stimulation)?
Answer: Only low-avidity PR1-CTLs could be elicited; also recorded: Only low avidity PR1-CTL could be elicited

Question: What about the “lowest PR1 concentration eliciting PR1-CTLs” value ([5]; patient 1) of the same substance?
Answer: ≥ 0.2 µM

Question: What about the “lowest PR1 concentration eliciting low-avidity PR1-CTLs” value ([5]; patient 2) of the same substance?
Answer: 0.02 µM

Question: And the “lowest PR1 concentration eliciting low-avidity PR1-CTLs” value ([5]; patient 3)?
Answer: 0.002 µM

Question: What about the “peptide-specific lysis by CTL line generated against the peptide” value [1] of the same substance?
Answer: high specific lysis

Question: And the “surface HLA-A2 expression on T2 cells versus PR1 concentration” value ([4]; PR1 from 2 μM and 200 μM)?
Answer: increases linearly

Question: What about the “Median Channel of Fluorescence … on T2” value [4] of the same substance?
Answer: 294

Question: What about the “surface HLA-A2.1 expression compared with T2 cells with no added peptide” value [4] of the same substance?
Answer: increased surface HLA-A2.1 expression

Question: What about the “high intensity PR1/HLA-A2 tetramer-staining CTL elicited” value ([6]; 0.2 μM PR1 weekly for 28 days) of the same substance?
Answer: 1.3%

Question: And the “median channel of flourescence (MCF) of tetramer staining” value ([6]; 20 μM PR1)?
Answer: 93

Question: What about the “low avidity PR1-specific CTL elicited” value ([6]; 20 μM PR1 weekly for 28 days) of the same substance?
Answer: 3.1%

Question: What about the “bulk culture CTL double-positive for anti-CD8 and PR1-tetramer” value ([6]; 32 day-old PR1-stimulated CTL culture) of the same substance?
Answer: 4.3%

Question: And the “fraction of CTL line specific for PR1 (CD8/PR1-tetramer)” value ([6]; day 17 CTL line elicited against PR1)?
Answer: 2.4%

Question: And the PR1-CTL induced ([6]; ≦0.02 μM PR1)?
Answer: < 0.1%

Question: What about the “PR1-specific CTL immunity elicited (by tetramer staining)” value [7] of the same substance?
Answer: 6 of 9

Question: What about the complete remissions [7] of the same substance?
Answer: 2 patients
